Test results as given in US20240262812A1, “N-SUBSTITUTED PHENYLSULFONAMIDE COMPOUND AND USE THEREOF” (Shanghai Leado Pharmatech Co., Ltd., priority 2021, published 2024).

Key:
[1] = test system: DNBS, TNBS, or DSS induced colitis; details: administration of selective TRPA1 inhibitor; background; cited from earlier work
[2] = test system: acute gastric mucosal injury; details: background; cited from earlier work
[3] = test system: DNBS induced colitis in Wistar rats; test: DNBS induced colitis model in Wistar rats; assay type: in vivo, rat; set-up: Degree of adhesion (score) / Degree of intestinal infarction (score) / Severity of ulcer (score) / Degree of intestinal wall thickening (score) / Macroscopic colon score: scale not given here; details: oral once a day Day 0 to Day 6, compounds 10 mg/kg, osalazine sodium 300 mg/kg
Description: The therapeutic effect of compounds prepared in some examples of the present invention on 2,4-dinitrobenzenesulfonic acid (DNBS) induced ulcerative colitis in Wistar rats (corresponding to Crohn's disease) was investigated.
• Animal species and strains: Wistar rats • Administration record: No administration history • Gender and weight: Male, about 150 g • Breeding party/supplier: Shanghai SLAC Laboratory Animal Co., Ltd • Adaptation period: 5 days • Room: Regular Area Rooms • Indoor temperature: 20-26° C. • Indoor relative humidity: 40-70% • Lighting: Fluorescent lighting, 12-hour illumination (08:00-20:00) and 12-hour no illumination • Animal feeding: 2-4 rats per cage (same administration group) • Food: Unlimited access to feed (disinfected by irradiation, Jiangsu Xietong Pharmaceutical Bio-engineering Co., Ltd., China) • Water: Unlimited access to drinking water (treated with reverse osmosis and high-pressure sterilization)
A total of 80 Wistar rats were purchased from Shanghai SLAC Laboratory Animal Co., Ltd, of which 10 were used as backup animals to select animals with suitable weight range included in the groups, in order to control the fluctuation of disease severity caused by weight fluctuations.
BioBook software was used to screen 70 animals for random grouping based on animal weight to ensure that the weight values of each group of animals were similar to reduce bias.
3.1 DNBS powder was dissolved in 30% ethanol with a final concentration of 60 mg/mL.
3.2 Induction of colorectal inflammation: Before the experiment, rats were fasted for 40 hours and subcutaneously injected with 5% glucose saline during the fasting period. On the day 0 of the experiment, fasting rats were anesthetized by intraperitoneal injection of Zoletil and 5 mg/kg Xylazine. G2 group-G7 group, a hose was extended from the anus to the left curvature of the colorectum, and colorectal inflammation in rats was induced with DNBS enema. The normal control group (G1) was treated with 30% ethanol enema using the same method.
3.3. Dosage regimen: After DNBS induction in G1 and G2 groups of animals, solvent was administered. After DNBS induction in G3 group, 300 mg/kg of oxalazine sodium was administered. After DNBS induction in G4 to G7 groups, 10 mg/kg of the compounds of the present invention were administered respectively. Please refer to Table 3 for the administration time, specific administration dosage, and administration route. Starting from day 0 of modeling, the drugs were administered continuously for 7 days, and the animals were euthanized on day 6.
3.4 Testing indicators: After the experiment, all animals were euthanized by inhaling excessive CO2 and dislocation of cervical vertebra. After the abdominal cavity was cut open, the colorectum was taken out and the length of it was immediately measured. Then the colorectum was longitudinally cut open and rinsed clean. The weight of the colorectum and the area of the ulcer were recorded and the whole was photographed. At the same time, the damage to the rat colorectum was evaluated macroscopically according to Table 4.
The health status of animals and their comprehensive response to surgery and medication were observed every day.
The experimental data was calculated as mean±standard error. Statistical analysis was performed using Graphpad Prism, SPSS, or Sigmaplot software. The specific data is presented in the form of charts. P<0.05 is considered to have statistical differences.

CC(C)c1ccc(NC(=O)Cn2cnc3c2c(=O)n(C)c(=O)n3C)cc1 [HC-030031, HC030031]
symptom of colitis in animals [1]: significantly alleviated the symptom of colitis in animals
result in rat model of acute gastric mucosal injury [2]: showed positive result

O=C([O-])c1cc(/N=N/c2ccc(O)c(C(=O)[O-])c2)ccc1O.[Na+].[Na+] [osalazine sodium, reference compound]
Degree of adhesion (score) ([3]; mean score per Table 4): 0.00
Degree of intestinal infarction (score) ([3]; mean score per Table 4): 0.00
Degree of intestinal wall thickening (score) ([3]; mean score per Table 4): 0.40
Severity of ulcer (score) ([3]; mean score per Table 4): 1.50
Macroscopic colon score ([3]; mean total score): 1.90
Colon length ([3]; mean): 14.33 cm
Colon weight ([3]; mean): 1.41 g
Ulcer area ([3]; mean): 0.30 cm^2
Ulcer length ([3]; mean): 0.71 cm
Ulcer width ([3]; mean): 0.34 cm

O=C([O-])c1cc(/N=N/c2ccc(O)c(C(=O)[O-])c2)ccc1O.[Na+].[Na+] [oxalazine sodium, reference compound]
Colon weight ([3]; mean): significantly reduce
Ulcer area ([3]; mean): significantly reduce
